Usually half-life stands for the time needed for the level to fall by half in the phase considered. A high value points to slow decline.

These results are taken from patent publication US10265374B2, “Occidiofungin formations and uses thereof” (MISSISSIPPI STATE UNIVERSITY, priority 2014, dated 2019).

One data set concerns Candida albicans. The settings on record: Candida albicans (References 9, 10); cited from earlier work.
Data set [1] concerns normal human neonatal dermal fibroblasts cell line. The data set is described as follows: In vitro toxicity screening (CellTiter-Blue cell viability, 48 hours). In kind it is cell-based. From the text:
(§1) Cancer cell lines, OVCAR8 (Center for Cancer Research (OVAR.8; Sample ID 25)), SW1088 (ATCC-HTB-12), and Toledo (ATCC CRL-2631), and normal human neonatal dermal fibroblasts cell line (ATCC-PCS-201-010) were passaged and prepped as previously described (See References 15-17). OVCAR8, SW1088, and Toledo2631 are ovarian, brain, and B-cell lymphoma cancer cell lines, respectively. This panel of cell lines was chosen based, in part, on their being from very different cancer types in order to discern whether occidiofungin would have a broad spectrum activity towards cancer cell lines of vastly different parental organ/cell types. OVCAR8 cells are widely used in the field of cancer therapeutic research as a panel representative of ovarian cancer in screening experiments for identifying both ovarian-specific and non-specific (i.e., anti-neoplastic activity on multiple cancer cell types) therapeutic agents (See References 28-30). Similarly, SW1088 cells are widely used in the field of cancer therapeutic research as a panel representative of glioma (the most common brain cancer) in screening experiments for identifying both glioma-specific and non-specific therapeutic agents (See References 31-32). Toledo 2631 cells are derived from lymphoma cells, and are used in the field of cancer therapeutic research for identifying lymphoma-specific and non-specific therapeutic agents (See, e.g., Reference 33). […] Cell counts per plate were calculated to be approximately 50,000 cells/mL. A 10× stock solution of occidiofungin was prepared at 65 μM concentration in 10% dimethyl sulfoxide (DMSO). Two-fold serial dilutions on a 96 well plate were set up in triplicate with starting concentration of 6.5 μM and a final concentration of 3 nM. Bortezomib was used as a comparator for toxicity against human fibroblast and was serially diluted two-fold starting at a concentration of 5 μM and ending at 2.5 nM. Bortezomib is used clinically against myeloma and lymphoma cancers in patients refractory against other chemotherapeutics (See References 18, 19). Furthermore, bortezomib has shown efficacy against a variety of solid tumors and cancer cell lines, making this an appropriate comparison molecule in the panel of cell lines chosen (See References 34-35). The plates were then incubated at 37° C. in 5% CO2 for 48 hours. After 48 hours, cell viability was monitored using CellTiter-Blue (Promega) cell viability assay by measuring the fluorescence emission of a redox activated dye (579EX/584EM) using a POLARstar Omega microplate reader (BMG Labtech).

The subject of another data set is yeast cells. Particulars: low drug concentrations (1 μg/ml, around 833 nM), Reference 2; cited from earlier work.
The nature of data set [2]: Pharmacokinetics of occidiofungin in DOPC or DOPC:DPPG vesicles. It counts as in vivo, mice. The settings on record: vesicle formulations, 2.5 mg/kg i.v., mice. The method, then:
Entrapment of occidiofungin in vesicles was done using 1,2-Dioleoyl-sn-glycero-3-phosphocholine (DOPC) and 1,2-dipalmitoyl-sn-glycero-3-[phospho-rac-(3-lysyl(1-glycerol))] (DPPG) from Avanti polar lipids. Lipid cake formation and subsequent hydration was done according to the manufacturer's recommendation. Briefly, 20 mg/ml of DOPC in chloroform was placed in a glass beaker and dried by vacuum evaporation to remove the organic solvent. The lipid film formed was hydrated using a 1 μg/μl solution of occidiofungin in 1.5% (2-Hydroxypropyl)-β-cyclodextrin (Alfa Aesar), while maintaining the lipid concentration at 20 mg/ml and the solution was sonicated to form the vesicles. Similarly, DPPG was mixed with DOPC at a ratio of 9:1 (DOPC:DPPG) to make a homogenous lipid mixture at a concentration of 20 mg/ml and the same process of drying and hydration was repeated to make vesicles. Following vesicle formation, estimation of the amount of occidiofungin trapped inside each type of vesicle was done. The mixture containing free and vesicle trapped occidiofungin was passed through a gel filtration column containing Sephadex G-10 beads. The void volume (containing only the vesicle trapped occidiofungin) was collected and occidiofungin extracted using methanol (50% final concentration). Liquid chromatography was done on the extracted sample, and a standard and the concentration of occidiofungin in the extracted sample was estimated by a comparison of peak volumes.
Occidiofungin in DOPC and DOPC-DPPG, at a concentration of 2.5 mg/kg, with ˜1.25 mg/kg entrapped in vesicles, was administered to six female BALB/c mice respectively via intravenous administration. […] The mice were weighed prior to the start of the experiment and every 24 hours post injection (hpi).
Blood was drawn at time points 1 hpi, 3 hpi, 5 hpi, 7 hpi, 9 hpi, 12 hpi, 18 hpi, 24 hpi and 48 hpi. 15 μl of blood was drawn from the lateral saphenous vein of each mouse for the first three time points. Blood from three mice were pooled together and added to 5 μl of 6.4% citric acid to prevent coagulation. From the fourth time point, blood was drawn from the tail vein of the mice. Blood samples were spun down at 13000 rpm for 10 minutes to separate the plasma. The plasma and the blood pellet obtained were stored separately at −20° C. until analysis. The plasma samples were thawed and the occidiofungin was extracted using a final concentration of 50% methanol. The protein precipitate was spun down at 13000 rpm for 10 minutes and the supernatant was used for analysis. Liquid chromatography was done using Acclaim 120 C18 columns (Length: 150 mm; I.D: 2.1 mm; 5 μm) to purify the occidiofungin in the sample. The occidiofungin was then subjected to MS/MS. Fragmentation of the occidiofungin (parent mass 1200 and 1216 Da) was carried out and the fragment of 1068 and 1084 Da m/z, which corresponds to the occidiofungin molecule (A and B forms, respectively) without the xylose sugar, was used for quantification of occidiofungin. A calibration curve constructed using standard concentrations of occidiofungin in plasma was used to analyze the samples obtained from the mice for pharmacokinetics (See FIGS. 6A-6B & 7A-7B).

For a further data set, the system named is Toledo (ATCC CRL-2631). The data set is described as follows: In vitro toxicity screening (CellTiter-Blue cell viability, 48 hours). In kind it is cell-based, human. The settings on record: Toledo CRL-2631 B-cell lymphoma cell line, mean of three independent experiments, read-out: TC50 (the source's name).
Description: as §1
(In general: The colour change of resazurin is a common sign of viable cells or microbes.)

A further data set has as its system OVCAR8. The data set is described as above. It counts as cell-based, human.
Description: as §1

For the next data set, the system named is SW1088. The description is as above. It counts as cell-based, human. Particulars: SW1088 astrocytoma brain cancer cell line, mean of three independent experiments, read-out: TC50 (the source's name).
Description: as §1

Take occidiofungin: in the data set on Candida albicans, the “fungicidal activity compared with caspofungin” value is reported as “more rapid”. Further, in data set [1] (TC50 of OVCAR8, SW1088, Toledo vs fibroblasts), the “cancer cell lines relative to normal human primary dermal fibroblasts cell line” value is on record as “approximately eight-fold higher”. For the same substance, the CC50 worked out at 533 nM in data set [1] (human fibroblast cell line, 48 hours, mean of three independent experiments, read-out: TC50 (the source's name)); 70 nM in the data set with Toledo (ATCC CRL-2631); 61 nM with OVCAR8 (OVCAR8 ovarian cancer cell line, 48 hours, mean of three independent experiments, read-out: TC50 (the source's name)); 68 nM in the data set with SW1088. In data set [1] (occidiofungin vs bortezomib), the “activity relative to bortezomib against the human fibroblast cell line” value is “approximately eight-fold higher”. In the data set on yeast cells, the “morphological change of yeast cells” value is “appeared to shrink in size”. This substance also had a half-life in data set [2] of roughly 14 h. Further, in the data set with OVCAR8 (cancer cell lines OVCAR8, SW1088, Toledo together), the “activity against the cancer cell lines relative to what has been reported against Candida species” value is “ten to twenty-fold higher”.
